Measured values taken from patent publication US8563562B2, “Compounds having antiviral properties” (priority 2008, dated 2013).

Assays:
Assay type in all cases: cell-based
[1] = tested on: HIV variant T125K/F121Y integrase; experiment: PhenoScreen (Phenosense) assay, single-round luciferase pseudotyped HIV; conditions: for EC50: Human immunodeficiency virus 1, read-out: Activity, Phenosense assay, T125K F121Y
From the text: (§1) Monogram Bioscience' PhenoScreen assay allows the evaluation of integrase inhibitors for activity against a variety of HIV variants. The assay uses virus generated from 2 DNA constructs; one containing the HIV LTR, gag and pol regions, as well as a luciferase reporter gene in place of the viral envelope genes, and a second DNA construct containing the amphotrophic murine leukemia virus (A-MLV) envelope gene required to pseudotype virions and render them capable of entry into a target cell. Viruses generated using these constructs by transfection into a producer cell line such as 293T are capable of one-round of infection only. Successful integration events are directly proportional to the levels of luciferase expression 48 h after infection.
(§2) The viral variants chosen by the present inventors to screen integration inhibitors consist of mutations within the viral integrase enzyme known to confer resistance to a number of known integration inhibitors published in the literature. In particular, the viral variants containing the Q148H/G140S double mutation in integrase, and the N155H/E92Q double mutation in integrase, represent two of the more common viruses identified to arise in patients that are failing treatment with Isentress (Raltegravir, MK-0518).

[2] = tested on: HIV variant T661/S153Y integrase; experiment: as above; conditions: Human immunodeficiency virus 1, read-out: Activity, Phenosense assay, T661 S153Y
From the text: as §1, §2

[3] = tested on: HIV variant G140S/Q148H integrase; experiment: as above; conditions: Human immunodeficiency virus 1, read-out: Activity, Phenosense assay, G140S Q148H
From the text: as §1, §2

[4] = tested on: HIV variant Y143R integrase; experiment: as above; conditions: for EC50: Human immunodeficiency virus 1, read-out: Activity, Phenosense assay, Y143R
From the text: as §1, §2

[5] = tested on: HIV variant E92Q/N155H integrase; experiment: as above; conditions: for EC50: Human immunodeficiency virus 1, read-out: Activity, Phenosense assay, E92Q/N155H
From the text: as §1, §2

HIV WT integrase = experiment: as above; conditions: Human immunodeficiency virus 1, read-out: Activity, Phenosense assay, WT
From the text: as §1, §2

[6] = tested on: HIV-1 reporter virus, wild-type (WT) integrase; experiment: Luciferase reporter virus infectivity assay in 293T cells; conditions: Human immunodeficiency virus 1, HEK-293T, 48 h, read-out: Luciferase assay EC50, WT
From the text: (§3) Infectivity assays using reporter viruses derived from lentiviral vectors capable of a single round of infection were used to determine the activity (EC50) of compounds. The DNA used to generate viruses for infection was the full-length HIV-1 genome which had been envelope-deleted. In addition, a reporter gene (the firefly luciferase gene from Photinus pyralis) was cloned into the nef region of the HIV backbone for ease of assay readout. […]. Culture supernatants containing VSV-G pseudotyped virions were harvested 64 h post transfection, clarified by centrifugation to remove cell debris, and frozen at −70° C. until use.
(§4) HIV integrase was mutated within a shuttle vector (pGEM) containing the majority of the HIV-1 gag and pol sequence using site-directed mutagenesis to generate sequences that are known to confer resistance to published integrase inhibitors. These include but are not limited to mutations such as Q148H/G140S (in table #QHGS), N155H/E92Q (in table #NHEQ), F121Y/T124K (in table FYTK), Y143R (in table #Y143R) and the triple mutant Q148K/G140A/E138A. (in table#QKGAEA). The mutated integrase coding region within the shuttle vector was sequence verified, and then exchanged for the wild-type (WT) coding sequence in the reporter virus DNA backbone.
(§5) 293T cells were plated out at 12000 cells per well in CellView 96-well cell culture plates (Invitrogen) 16 h prior to compound addition. Compounds were preincubated with cells for 4 h at 37° C. prior to the addition of virus sufficient to generate approximately 10000 Luciferase light units (as measured by the Victor Wallace luminometer) upon assaying using the Bright-Glo™ reagent (Promega) according to the manufacturer's instructions at 48 h post infection.

[7] = tested on: HIV-1 reporter virus, Q148K/G140A/E138A (QKGAEA) integrase; experiment: as above; conditions: Human immunodeficiency virus 1, HEK-293T, 48 h, read-out: Luciferase assay EC50, QKGAEA
From the text: as §3, §4, §5

[8] = tested on: HIV-1 reporter virus, Q148H/G140S (QHGS) integrase; experiment: as above; conditions: Human immunodeficiency virus 1, HEK-293T, 48 h, read-out: Luciferase assay EC50, QHGS
From the text: as §3, §4, §5

[9] = tested on: HIV-1 reporter virus, N155H/E92Q (NHEQ) integrase; experiment: as above; conditions: Human immunodeficiency virus 1, HEK-293T, 48 h, read-out: Luciferase assay EC50, NHEQ
From the text: as §3, §4, §5

[10] = tested on: HIV-1 reporter virus, Y143R integrase; experiment: as above; conditions: Human immunodeficiency virus 1, HEK-293T, 48 h, read-out: Luciferase assay EC50, Y143R
From the text: as §3, §4, §5

[11] = tested on: HIV-1 reporter virus, F121Y/T124K (FYTK) integrase; experiment: as above; conditions: Human immunodeficiency virus 1, HEK-293T, 48 h, read-out: Luciferase assay EC50, FYTK
From the text: as §3, §4, §5

| SMILES | EC50 [1] | improvement in activity over comparative example 3, T125K F121Y ([1]; footnote a, T125K/F121Y mutant) | EC50 [2] | EC50 [3] | EC50 [4] | improvement in activity over comparative example 3, Y143R ([4]; footnote a, Y143R mutant) | EC50 [5] | improvement in activity over comparative example 3, E92Q/N155H ([5]; footnote b, E92Q/N155H mutant) | EC50 (HIV WT integrase) | EC50 [6] | EC50 [7] | EC50 [8] | EC50 [9] | EC50 [10] | EC50 [11] |
| --- | --- | --- | --- | --- | --- | --- | --- | --- | --- | --- | --- | --- | --- | --- | --- |
| O=c1c(O)c(-c2ncc(Cc3ccc(F)cc3)o2)nc2c(I)cc(N3CCOCC3)cn12 [Example 4, 2-[5-(4-fluoro-benzyl)-oxazol-2-yl]-3-hydroxy-9-iodo-7-morpholin-4-yl-pyrido[1,2-a]pyrimidin-4-one] | 1 to 100 nM | a 2.5-fold improvement in activity over comparative example 3 | 1 to 100 nM | > 10000 nM | 1 to 100 nM | a 2.5-fold improvement in activity over comparative example 3 | 1 to 100 nM | b 2-fold improvement in activity over comparative example 3 | 1 to 100 nM |  |  |  |  |  |  |
| O=c1c(O)c(-c2ncc(Cc3ccc(F)cc3)o2)nc2ccc(N3CCOCC3)cn12 [Example 7, 2-[5-(4-fluoro-benzyl)-oxazol-2-yl]-3-hydroxy-7-morpholin-4-yl-pyrido[1,2-a]pyrimidin-4-one] | 100 to 1000 nM |  | 1 to 100 nM | 1000 to 10000 nM | 1 to 100 nM |  | 100 to 1000 nM |  | 1 to 100 nM |  |  |  |  |  |  |
| O=c1c(O)c(-c2ncc(Cc3ccc(F)cc3)s2)nc2ccc(N3CCOCC3)cn12 [Example 41, 2-[5-(4-Fluoro-benzyl)-thiazol-2-yl]-3-hydroxy-7-morpholin-4-yl-pyrido[1,2-a]pyrimidin-4-one] | 1 to 100 nM |  | 1 to 100 nM | 100 to 1000 nM | 1 to 100 nM |  | 100 to 1000 nM |  | 1 to 100 nM | 1 to 100 nM | > 1000 nM | > 1000 nM | 1 to 100 nM |  |  |
| O=c1c(O)c(-c2ncc(Cc3ccc(Cl)c(Cl)c3)s2)nc2ccc(N3CCOCC3)cn12 [Example 42, 2-[5-(3,4-Dichloro-benzyl)-thiazol-2-yl]-3-hydroxy-7-morpholin-4-yl-pyrido[1,2-a]pyrimidin-4-one] | 100 to 1000 nM |  | 100 to 1000 nM | 1000 to 10000 nM | 100 to 1000 nM |  | 100 to 1000 nM |  | 100 to 1000 nM |  |  |  |  |  |  |
| O=c1c(O)c(-c2ncc(Cc3ccc(F)cc3)[nH]2)nc2ccc(N3CCOCC3)cn12 [Example 45, 5-(4-Fluoro-benzyl)-2-(3-hydroxy-7-morpholin-4-yl-4-oxo-4H-pyrido[1,2-a]pyrimidin-2-yl)-1H-imidazol-1-ium chloride] |  |  |  |  |  |  |  |  |  | 1 to 100 nM | 100 to 1000 nM | 100 to 1000 nM | 100 to 1000 nM | 100 to 1000 nM | 100 to 1000 nM |
| CN1CCN(c2cc(N3CCOCC3)cn3c(=O)c(O)c(-c4ncc(Cc5ccc(F)cc5)s4)nc23)S1(=O)=O [Example 99, 2-[5-(4-Fluoro-benzyl)-thiazol-2-yl]-3-hydroxy-9-(5-methyl-1,1-dioxo-1l6-[1,2,5]thiadiazolidin-2-yl)-7-morpholin-4-yl-pyrido[1,2-a]pyrimidin-4-one] |  |  |  |  |  |  |  |  |  | 1 to 100 nM | 100 to 1000 nM | 1 to 100 nM | 1 to 100 nM | 1 to 100 nM | 1 to 100 nM |
| CN1CCN(c2cc(N3CCOCC3)cn3c(=O)c(O)c(-c4ncc(Cc5ccc(F)cc5)s4)nc23)C1=O [Example 101, 2-[5-(4-Fluoro-benzyl)-thiazol-2-yl]-3-hydroxy-9-(3-methyl-2-oxo-imidazolidin-1-yl)-7-morpholin-4-yl-pyrido[1,2-a]pyrimidin-4-one] |  |  |  |  |  |  |  |  |  | 1 to 100 nM | 100 to 1000 nM | 1 to 100 nM | 1 to 100 nM | 1 to 100 nM | 1 to 100 nM |
| O=C1OCCN1c1cc(N2CCOCC2)cn2c(=O)c(O)c(-c3ncc(Cc4ccc(F)cc4)s3)nc12 [Example 103, 2-[5-(4-Fluoro-benzyl)-thiazol-2-yl]-3-hydroxy-7-morpholin-4-yl-9-(2-oxo-oxazolidin-3-yl)-pyrido[1,2-a]pyrimidin-4-one] |  |  |  |  |  |  |  |  |  | 1 to 100 nM | 100 to 1000 nM | 1 to 100 nM | 1 to 100 nM | 1 to 100 nM | 1 to 100 nM |
| O=c1c(O)c(-c2ncc(Cc3ccc(F)cc3)s2)nc2c(N3CCCS3(=O)=O)cc(N3CCOCC3)cn12 [Example 105, 9-(1,1-Dioxo-1l6-isothiazolidin-2-yl)-2-[5-(4-fluoro-benzyl)-thiazol-2-yl]-3-hydroxy-7-morpholin-4-yl-pyrido[1,2-a]pyrimidin-4-one] |  |  |  |  |  |  |  |  |  | 1 to 100 nM | 100 to 1000 nM | 100 to 1000 nM | 1 to 100 nM | 1 to 100 nM | 1 to 100 nM |
